Data published in patent US20090087845A1, “Genetic Markers Of True Low Birth Weight” (priority 2005, published 2009).
Where “and” joins values, the source holds several entries; their conditions need not be identical. Equal entries are not always repeated.

Test system: placental gene expression
Assay: Placental gene expression (Affymetrix Rat Genome Chip 230.2) after SSRI (fluoxetine) exposure throughout gestation
Format: in vivo
Conditions: placenta, SSRI-exposed samples
Method: Gene expression data from pregnant rats under different forms of dietary restriction was gathered. […] (N=8) • Group 2 (CR50): Rats Given 50% of their Normal Daily Intake of Food. (N=5) • Group 3 (CR70): Rats Given 70% of their Normal Daily Intake of Food. […] (N=6) Placentas from the rats of each Group were harvested on Day 21 of gestation. RNA was extracted and gene expression was measured based on hybridization of RNA to Affymetrix Rat Genome Chips™ (230.2) (Affymetrix, Santa Clara, Calif.).
In order to determine whether placental gene expression profiling can be used to identify other prenatal exposures such as toxicants and drugs, a group of rats with drug exposure was monitored as described above. […] As with control, CR50, CR70, and HF groups, placentas from the mothers were sampled after 21 days of gestation and gene expression monitored utilizing an Affymetrix Rat Genome Chip.

## CNCCC(Oc1ccc(C(F)(F)F)cc1)c1ccccc1 (centres unmarked) [fluoxetine, Fluoxetine]
  expression, probeset 1368985_at: 4.725 and 4.454 and 4.646 and 4.715 and 4.588 and 4.472
  expression, probeset 1369005_at: 5.188 and 5.546 and 5.291 and 5.305 and 5.241 and 5.222
  expression, probeset 1369014_at: 4.757 and 5.004 and 4.708 and 4.543 and 4.616 and 4.993
  expression, probeset 1369051_at: 5.588 and 5.207 and 4.835 and 5.011 and 5.144 and 5.186
  expression, probeset 1369192_at: 5.561 and 5.364 and 5.202 and 5.355 and 5.327 and 5.66
  expression, probeset 1369754_a_at: 8.583 and 8.277 and 8.264 and 8.283 and 8.554 and 8.483
  expression, probeset 1369894_at: 3.616 and 3.758 and 3.897 and 3.839 and 4.008 and 3.982
  expression, probeset 1370115_at: 4.967 and 4.917 and 4.824 and 4.622 and 4.818 and 4.719
  expression, probeset 1370260_at: 7.313 and 7.599 and 7.249 and 7.038 and 7.707 and 6.879
  expression, probeset 1370521_at: 8.48 and 8.58 and 8.737 and 8.764 and 8.624 and 8.798
  expression, probeset 1370682_at: 5.579 and 5.507 and 5.51 and 5.944 and 5.574 and 5.843
  expression, probeset 1370688_at: 7.904 and 7.963 and 8.096 and 7.915 and 8.157 and 7.99
  expression, probeset 1370766_at: 4.633 and 4.679 and 4.503 and 4.578 and 4.207 and 4.398
  expression, probeset 1371435_at: 11.53 and 11.47 and 12.47 and 12.43 and 12.2189 and 12.12
  expression, probeset 1371813_at: 6.757 and 6.608 and 7.254 and 7.022 and 6.663 and 6.909
  expression, probeset 1372141_at: 9.643 and 9.597 and 10.34 and 10.39 and 9.957 and 10.19
  expression, probeset 1372462_at: 7.912 and 7.819 and 7.864 and 7.873 and 6.184 and 8.214
  expression, probeset 1372514_s_at: 8.136 and 8.21 and 8.071 and 8.128 and 7.741 and 8.134
  expression, probeset 1372593_at: 7.225 and 7.133 and 7.724 and 8.015 and 7.571 and 7.719
  expression, probeset 1373319_at: 9.595 and 9.441 and 10.05 and 10.11 and 10.07 and 9.901
  expression, probeset 1373396_at: 8.164 and 8.317 and 8.21 and 8.056 and 8.147 and 8.247
  expression, probeset 1373702_at: 7.559 and 7.846 and 7.181 and 7.332 and 7.377 and 7.496
  expression, probeset 1373804_at: 7.894 and 7.963 and 7.858 and 8.12 and 7.699 and 8.068
  expression, probeset 1373925_at: 6.195 and 6.159
  expression, probeset 1374112_at: 7.049 and 6.725 and 6.891 and 7.196 and 7.138 and 6.73
  expression, probeset 1374231_at: 8.494 and 8.998 and 8.117 and 8.316 and 7.948 and 8.466
  expression, probeset 1374656_at: 8.729 and 9.034 and 8.507 and 8.743 and 9.004 and 8.9546
  expression, probeset 1374739_at: 8.348 and 8.65 and 7.424 and 7.76 and 7.662 and 7.815
  expression, probeset 1374807_at: 6.505 and 6.904 and 6.697 and 6.907 and 6.749 and 6.775
  expression, probeset 1375407_at: 4.487 and 4.33 and 4.344 and 4.489 and 4.605 and 4.326
  expression, probeset 1375738_at: 4.993 (2×) and 4.843 and 5.388 and 5.322 and 5.141
  expression, probeset 1376136_at: 5.074 and 4.867 and 4.557 and 4.873 and 4.805 and 4.931
  expression, probeset 1376218_a_at: 4.961 and 5.16 and 4.667 and 4.873 and 4.562 and 4.552
  expression, probeset 1376278_at: 6.191 and 6.405 and 5.934 and 6.175 and 6.205 and 6.006
  expression, probeset 1376289_at: 3.746 and 3.75 and 3.659 and 3.772 and 3.71 and 3.697
  expression, probeset 1376294_at: 7.495 and 7.951 and 7.425 and 7.689 and 7.578 and 7.48
  expression, probeset 1376844_at: 3.958 and 3.92 and 4.036 and 4.211 and 4.082 and 4.214
  expression, probeset 1376852_at: 6.78 and 6.537 and 6.455 and 6.699 and 6.862 and 6.682
  expression, probeset 1377028_at: 5.528 and 5.846 and 5.206 and 5.427 and 5.578 and 5.375
  expression, probeset 1377123_at: 8.958 and 9.069 and 8.729 and 8.819 and 8.853 and 8.789
  expression, probeset 1377210_at: 5.83 and 5.617 and 6.032 and 5.854 and 6.198 and 5.93
  expression, probeset 1377414_at: 7.593
  expression, probeset 1377476_at: 3.935 and 3.899 and 3.84 and 3.865 and 3.998 and 4.107
  expression, probeset 1377621_at: 8.676 and 8.675 and 8.549 and 8.432 and 8.896 and 8.593
  expression, probeset 1377746_at: 6.432 and 6.591 and 6.425 and 6.509 and 6.484 and 6.597
  expression, probeset 1378275_at: 8.581 and 8.43 and 8.773 and 8.828 and 8.515 and 8.555
  expression, probeset 1378318_at: 7.572 and 7.8 and 8.112 and 7.987 and 7.864 and 8.147
  expression, probeset 1378355_a_at: 5.807 and 6.412 and 5.853 and 5.536 and 5.777 and 6.037
  expression, probeset 1378642_at: 6.331 and 6.197 and 6.546 and 6.861 and 6.598 and 6.634
  expression, probeset 1378705_at: 8.279 and 8.34 and 7.828 and 7.561 and 7.947 and 7.98
  expression, probeset 1378872_at: 4.782 and 4.711 and 4.621 and 4.863 and 4.867 and 4.775
  expression, probeset 1378992_at: 3.832 and 3.701 and 3.85 and 3.859 and 3.911 and 3.949
  expression, probeset 1379110_at: 3.965 and 4.036 and 3.739 and 3.917 and 3.886 and 3.804
  expression, probeset 1379140_at: 4.026 and 4.28 and 4.108 and 3.886 and 4.071 and 4.079
  expression, probeset 1379206_at: 6.486 and 6.611 and 6.213 and 6.405 and 6.472 and 6.395
  expression, probeset 1379235_x_at: 7.486 and 7.695 and 7.128 and 7.252 and 7.527 and 7.244
  expression, probeset 1379342_at: 6.297 and 6.3 and 6.275 and 6.188 and 6.259 and 6.187
  expression, probeset 1379408_at: 8.688 and 8.662 and 8.77 and 8.887 and 8.853 and 8.912
  expression, probeset 1379796_at: 5.201 and 4.92 and 5.205 and 5.072 and 5.171 and 5.031
  expression, probeset 1379827_at: 7.897 and 7.85 and 7.7663 and 7.925 and 7.632 and 7.663
  expression, probeset 1379963_at: 6.925 and 7.095 and 7.165 and 7.115 and 7.307 and 7.146
  expression, probeset 1379980_at: 7.864 and 7.817 and 8.195 and 8.083 and 7.784 and 8.003
  expression, probeset 1380152_at: 5.47 and 5.228 and 5.461 and 5.179 and 5.39 and 5.269
  expression, probeset 1380392_at: 6.093 and 5.622 and 5.425 and 5.398 and 5.781 and 5.646
  expression, probeset 1380454_at: 5.81 and 5.871 and 5.693 and 5.717 and 5.721 and 5.875
  expression, probeset 1381074_at: 4.343 and 4.301 and 4.059 and 4.183 and 4.17 and 4.086
  expression, probeset 1381122_at: 5.406 and 5.219 and 5.499 and 5.148 and 5.434 and 5.212
  expression, probeset 1381286_at: 5.261 and 5.374 and 5.297 and 5.034 and 5.316 and 5.389
  expression, probeset 1381483_at: 3.996 and 4.01 and 3.983 and 3.972 and 3.97 and 4.017
  expression, probeset 1381872_at: 6.498 and 7.027 and 7.042 and 6.737 and 6.911 and 6.996
  expression, probeset 1381874_at: 6.734 and 6.453 and 6.457 and 6.588 and 6.285 and 6.523
  expression, probeset 1381941_at: 8.218
  expression, probeset 1381950_at: 3.397 and 3.37 and 3.47 and 3.379 and 3.404
  expression, probeset 1381966_at: 8.36 and 8.855 and 8.774 and 8.518 and 8.76 and 8.757
  expression, probeset 1382015_at: 7.649 and 7.911 and 7.376 and 7.559 and 7.728 and 7.55
  expression, probeset 1382056_at: 8.204 and 7.693 and 8.302 and 8.683 and 9.183 and 8.357
  expression, probeset 1382110_at: 7.206 and 7.183 and 6.692 and 6.852 and 6.784 and 6.862
  expression, probeset 1382513_at: 6.939 and 6.904 and 6.918 and 6.844 and 6.991 and 6.992
  expression, probeset 1382608_at: 5.493 and 5.536 and 5.441 and 5.641 and 5.553 and 5.573
  expression, probeset 1382825_at: 6.303
  expression, probeset 1382932_at: 5.367 and 5.211 and 5.239 and 5.252 and 5.387 and 5.359
  expression, probeset 1383132_at: 5.887 and 6.391 and 5.865 and 5.893 and 5.977 and 5.951
  expression, probeset 1383300_at: 8.422 and 8.732 and 8.861 and 8.982 and 9.071 and 8.854
  expression, probeset 1383309_at: 7.874 and 8.135 and 8.529 and 8.112 and 8.518 and 7.955
  expression, probeset 1383376_at: 6.632 and 7.028 and 7.303 and 6.987 and 6.76 and 6.955
  expression, probeset 1383430_at: 6.213 and 5.851 and 6.754 and 6.641 and 6.446 and 6.508
  expression, probeset 1383443_at: 5.895 and 5.907 and 6.025 and 5.854 and 5.859 and 6.136
  expression, probeset 1383472_at: 3.955 and 3.951 and 3.984 and 4.033 and 3.887 and 3.899
  expression, probeset 1383659_a_at: 5.774 and 5.519 and 5.386 and 5.431 and 4.833 and 6.496
  expression, probeset 1383667_at: 8 and 8.041 and 8.381 and 8.126 and 8.244 and 8.175
  expression, probeset 1383670_at: 7.784 and 7.593 and 7.74 and 7.592 and 7.856 and 7.209
  expression, probeset 1383900_at: 4.742 and 4.617 and 4.606 and 4.705 and 4.749 and 4.765
  expression, probeset 1383984_at: 3.997 and 4.264 and 4.189 and 4.266 and 4.14 and 4.315
  expression, probeset 1384135_at: 7.574 and 7.593 and 7.557 and 7.727 and 7.711 and 7.722
  expression, probeset 1384195_at: 5.325 and 5.826 and 5.609 and 5.355 and 5.716 and 5.368
  expression, probeset 1384374_at: 6.358 and 6.643 and 6.365 and 5.887 and 6.421 and 6.362
  expression, probeset 1384377_at: 7.233 and 7.134 and 7.085 and 7.15 and 7.214 and 7.158
  expression, probeset 1384467_at: 8.34 and 8.507 and 8.418 and 8.058 and 8.062 and 8.234
